According to US10131652B2, “Pyrimidinyloxy benzene derivatives as herbicides” (E. I. DU PONT DE NEMOURS AND COMPANY, priority 2014, dated 2018):
Read-outs that look alike come from different tables or passages of the source.

Columns and labels:
Assay in all cases: Test D pre-/postemergence plant response
Format in all cases: in vivo
[1] = system: giant foxtail (Setaria faberii); details: Setaria faberi, pre-emergence, Preemergence, scale 0 to 100 (0 no effect, 100 complete control), read-out: Plant response rating, Foxtail, Giant
How it was run: (§1)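 Pre-/post-emergence greenhouse test. Pre: seeded loam+sand, sprayed same day. Post: 1–4 leaf plants (2–18 cm), peat/vermiculite mix. Formulation: non-phytotoxic solvent + surfactant. Scored visually d13–15, 0–100 vs control.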

[2] = system: galium (catchweed bedstraw, Galium aparine); details: Galium; for pest or weed control at 8 g/ha: 8 g ai/ha; for pest or weed control at 16 g/ha: 16 g ai/ha; for pest or weed control at 31 g/ha: 31 g ai/ha; for pest or weed control at 62 g/ha: 62 g ai/ha
How it was run: as §1

[3] = system: oilseed rape (Brassica napus); details: Brassica napus; for plant injury at 8 g/ha: 8 g ai/ha; for plant injury at 16 g/ha: 16 g ai/ha; for plant injury at 31 g/ha: 31 g ai/ha; for plant injury at 62 g/ha: 62 g ai/ha
How it was run: as §1

corn (Zea mays) = details: Zea mays; for Corn plant response rating (crop injury, 0 = no effect, 100 = complete kill) at 62 g/ha: 62 g ai/ha
How it was run: as §1

[4] = system: barnyardgrass (Echinochloa crus-galli); details: Echinochloa crus-galli; for pest or weed control at 8 g/ha: 8 g ai/ha; for pest or weed control at 16 g/ha: 16 g ai/ha; for pest or weed control at 31 g/ha: 31 g ai/ha; for pest or weed control at 62 g/ha: 62 g ai/ha
How it was run: as §1

[5] = system: Italian ryegrass (Lolium multiflorum); details: Lolium multiflorum; for pest or weed control at 8 g/ha: 8 g ai/ha; for pest or weed control at 16 g/ha: 16 g ai/ha; for pest or weed control at 31 g/ha: 31 g ai/ha; for pest or weed control at 62 g/ha: 62 g ai/ha
How it was run: as §1

[6] = post-emergence, Postemergence, scale 0 to 100 (0 no effect, 100 complete control), read-out: Galium plant response rating
[7] = pre-emergence, Preemergence, scale 0 to 100 (0 no effect, 100 complete control), read-out: Plant response rating, Galium
[8] = post-emergence, Postemergence, scale 0 to 100 (0 no effect, 100 complete control), read-out: Oilseed Rape plant response rating
[9] = pre-emergence, Preemergence, scale 0 to 100 (0 no effect, 100 complete control), read-out: Plant response rating, Oilseed Rape
[10] = post-emergence, Postemergence, scale 0 to 100 (0 no effect, 100 complete control), read-out: Barnyardgrass plant response rating
[11] = pre-emergence, Preemergence, scale 0 to 100 (0 no effect, 100 complete control), read-out: Plant response rating, Barnyardgrass
[12] = post-emergence, Postemergence, scale 0 to 100 (0 no effect, 100 complete control), read-out: Ryegrass, Italian plant response rating
[13] = pre-emergence, Preemergence, scale 0 to 100 (0 no effect, 100 complete control), read-out: Plant response rating, Ryegrass, Italian

Q: What does the source list for `FC(F)c1cc(-c2ccccc2Oc2ncc(Cl)cn2)no1` [Compound 35, 5-chloro-2-[2-[5-(difluoromethyl)-3-isoxazolyl]phenoxy]pyrimidine]?
A: pest or weed control at 8 g/ha ([1]; 8 g ai/ha): 70%; pest or weed control at 16 g/ha ([1]; 16 g ai/ha): 90%; pest or weed control at 31 g/ha ([1]; 31 g ai/ha): 98%; pest or weed control at 62 g/ha ([1]; 62 g ai/ha): 100%; pest or weed control at 8 g/ha ([2]; post-emergence, Postemergence, read-out: Plant response rating (scale 0 to 100), Galium): 80%; pest or weed control at 16 g/ha [2, 6]: 70%; pest or weed control at 31 g/ha [2, 6]: 75%; pest or weed control at 62 g/ha ([2]; post-emergence, Postemergence, scale 0 to 100, 0 no effect, 100 complete control, read-out: Plant response rating, Galium): 85%; pest or weed control at 8 g/ha [2, 7]: 85%; pest or weed control at 16 g/ha [2, 7]: 100%; pest or weed control at 31 g/ha [2, 7]: 100%; pest or weed control at 62 g/ha [2, 7]: 100%; plant injury at 8 g/ha ([3]; post-emergence, Postemergence, read-out: Plant response rating (scale 0 to 100), Oilseed Rape): 5%; plant injury at 16 g/ha [3, 8]: 45%; plant injury at 31 g/ha [3, 8]: 80%; plant injury at 62 g/ha ([3]; post-emergence, Postemergence, scale 0 to 100, 0 no effect, 100 complete control, read-out: Plant response rating, Oilseed Rape): 98%; plant injury at 8 g/ha [3, 9]: 85%; plant injury at 16 g/ha [3, 9]: 98%; plant injury at 31 g/ha [3, 9]: 100%; plant injury at 62 g/ha [3, 9]: 100%; plant injury at 8 g/ha (corn (Zea mays); post-emergence, Postemergence, 8 g ai/ha, read-out: Plant response rating (scale 0 to 100), Corn): 5%; plant injury at 16 g/ha (corn (Zea mays); post-emergence, Postemergence, 16 g ai/ha, scale 0 to 100 (0 no effect, 100 complete control), read-out: Corn plant response rating): 5%; plant injury at 31 g/ha (corn (Zea mays); post-emergence, Postemergence, 31 g ai/ha, scale 0 to 100 (0 no effect, 100 complete control), read-out: Corn plant response rating): 10%; Corn plant response rating (crop injury, 0 = no effect, 100 = complete kill) at 62 g/ha (corn (Zea mays); post-emergence, Postemergence, scale 0 to 100, 0 no effect, 100 complete control): 20%; Corn plant response rating (crop injury, 0 = no effect, 100 = complete kill) at 8 g/ha (corn (Zea mays); pre-emergence, Preemergence, 8 g ai/ha, scale 0 to 100 (0 no effect, 100 complete control)): 0%; Corn plant response rating (crop injury, 0 = no effect, 100 = complete kill) at 16 g/ha (corn (Zea mays); pre-emergence, Preemergence, 16 g ai/ha, scale 0 to 100 (0 no effect, 100 complete control)): 0%; Corn plant response rating (crop injury, 0 = no effect, 100 = complete kill) at 31 g/ha (corn (Zea mays); pre-emergence, Preemergence, 31 g ai/ha, scale 0 to 100 (0 no effect, 100 complete control)): 0%; Corn plant response rating (crop injury, 0 = no effect, 100 = complete kill) at 62 g/ha (corn (Zea mays); pre-emergence, Preemergence, scale 0 to 100 (0 no effect, 100 complete control)): 15%; pest or weed control at 8 g/ha ([4]; post-emergence, Postemergence, read-out: Plant response rating (scale 0 to 100), Barnyardgrass): 10%; pest or weed control at 16 g/ha [4, 10]: 15%; pest or weed control at 31 g/ha [4, 10]: 20%; pest or weed control at 62 g/ha ([4]; post-emergence, Postemergence, scale 0 to 100, 0 no effect, 100 complete control, read-out: Plant response rating, Barnyardgrass): 20%; pest or weed control at 62 g/ha ([4]; pre-emergence, Preemergence, read-out: Plant response rating (scale 0 to 100), Barnyardgrass): 100%; pest or weed control at 8 g/ha [4, 11]: 5%; pest or weed control at 16 g/ha [4, 11]: 65%; pest or weed control at 31 g/ha [4, 11]: 75%; pest or weed control at 8 g/ha ([5]; post-emergence, Postemergence, read-out: Plant response rating (scale 0 to 100), Ryegrass, Italian): 0%; pest or weed control at 16 g/ha [5, 12]: 0%; pest or weed control at 31 g/ha [5, 12]: 5%; pest or weed control at 62 g/ha ([5]; post-emergence, Postemergence, scale 0 to 100, 0 no effect, 100 complete control, read-out: Plant response rating, Ryegrass, Italian): 20%; pest or weed control at 8 g/ha [5, 13]: 0%; pest or weed control at 16 g/ha [5, 13]: 0%; pest or weed control at 31 g/ha [5, 13]: 30%; pest or weed control at 62 g/ha [5, 13]: 80%
